The target in one series is T1, Cathepsin H (Homo sapiens, UniProt P09668).
T1 sequence (P09668 98-335): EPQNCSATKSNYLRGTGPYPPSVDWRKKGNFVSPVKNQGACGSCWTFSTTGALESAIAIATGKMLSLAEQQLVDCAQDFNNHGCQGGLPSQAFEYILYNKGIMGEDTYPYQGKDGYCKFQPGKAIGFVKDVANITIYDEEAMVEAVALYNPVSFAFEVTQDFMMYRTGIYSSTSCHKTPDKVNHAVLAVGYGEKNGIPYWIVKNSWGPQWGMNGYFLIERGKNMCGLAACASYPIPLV
Kind of series: Cathepsin H inhibition. Format: biochemical.

A further series concerns malarial inhibition. Kind of series: Another test of malarial inhibition.
Another series is described as follows: physchem. The following applies: 20 °C, water, thermodynamic from solid.
The target in series [1] is T2, Cathepsin B, purified from human liver (Homo sapiens, UniProt P07858).
T2 construct: Cathepsin B, purified from human liver; purchased Enzyme Systems Products (Dublin, Calif.); host or cells: human liver (tissue-purified)
Briefly: In vitro evaluation of inhibitors with purified cathepsin B. Format: biochemical. The following applies: purified cathepsin B; read-out: IC50 Cat B. On the procedure: Enzyme: Cathepsin B, purified from human liver, is from Enzyme Systems Products (Dublin, Calif.). The activity is 50 mU per ml at 30° C., in 52 mM sodium phosphate, pH 6.2, 31 mM DTT, 2.1 mM EDTA, with 0.2 mM Z—Arg—Arg-7-amino-4-trifluoromethyl-coumarin as a substrate. Specific activity is 8330 mU per mg protein. (1 mU=1 nmol per min.)
Substrate Boc—Leu—Arg—Arg-7-amino-4-trifluoromethyl-coumarin-2HBr is from Enzyme Systems Products (Dublin, Calif.) and is known to be a specific substrate for cathepsin B. A 20 mM solution is made in DMF and stored at […].
Candidate inhibitors are dissolved in DMF and diluted to 20 mM and stored at […]. Dilutions are made in assay buffer.
The percent inhibition and the inhibitor concentration at which the enzyme is 50% inhibited (IC50) are determined as follows. Five μl of assay buffer (50 mM potassium phosphate pH 6.2, 2 mM EDTA, 5 mM DTT) on ice for 30 min. The inhibition is initiated by the addition of […] inhibitor each to the 480 μl aliquots. The 485 μl aliquot with enzyme is used as a control and thus receives no inhibitor. The enzyme/inhibitor mixtures are incubated 10 min. on ice and assayed for cathepsin B activity as follows:
Cathepsin B assay: To 490 μl of pre-incubated inhibitor/enzyme mixtures in assay buffer in 0.5 ml cuvette at 37° is added 10 μl of the substrate. Final inhibitor concentrations become 2000 nM, 200 nM, and 20 nM for the 200 μM, 20 μM and 2 μM stock concentrations, respectively. Activity is followed by release of free AFC over 5 min. The change in fluorescence is (fluorescence units at t=6)−(fluorescence units at t=1) with a Perkin-Elmer LS-5B spectrofluorometer (ex=400 nm, em=505 nm). The percent inhibition is determined by comparing the change in fluorescence units of the three sample concentrations of inhibited enzyme to the change in fluorescence units of the control enzyme. The percent inhibition is calculated as:
100−(fl. units of sample/fl. units of control×100).
The IC50 is ascertained by plotting percent inhibition vs. inhibitor concentration on the log scale. The IC50 is the concentration of the inhibitor (nM) at which the enzyme is inhibited by 50%.

Series [2] concerns T. cruzi. Kind of series: Inhibition of T. cruzi in infected cells, cell line J774. The format is cell-based. The note with it: days before cell monolayer is destroyed by infection; 20 μM, daily change of medium plus inhibitor. On the procedure: (§1) Survival time is measured in days before the cell monolayer is destroyed by the infection. Irradiated BHK and J774 cells (six well plates) were infected with T. cruzi and simultaneously treated with 20 μM (3 ml total volume) with daily change of culture medium+plus inhibitor).
(§2) Cultivation and preparation of T. cruzi. Cloned and uncloned populations were derived from the strains Brasil, and CA-I and are cryopreserved in liquid nitrogen. Axenically cultured epimastigotes are maintained in exponential growth phase by weekly passage in Brain Heart Infusion-Tryptose medium (BHT media as given in Cazzulo, Cazzulo, Martinez, and Cazzulo, Some Kinetic Properties of a Cysteine Proteinase (Cruzipain) from Trypanosoma Cruzi. 33 Mol. Biochem. Parasitol. 33-42 (1990)), supplemented with […] 10% (v/v) heat inactivated fetal calf serum (FCS). Different host cell lines (J774 mouse macrophage, BHK, etc.) are cultured with RPMI-1640 supplemented with 5% FCS at 37° in a humidified atmosphere containing 5% CO2. Trypomastigotes liberated from the host cells are used to infect new cultures for serial maintenance of the parasite in cell culture. The protocols used for the in vitro assays of cysteine protease inhibitors are essentially as described by Harth, Andrews, Mills, Engel, Smith, and McKerrow, Peptide-Fluoromethyl Ketones Arrest Intracellular Replication and Intercellular Transmission of Trypanosoma Cruzi. 58 Mol. Biochem. Parasitol. 17-24 (1993), with the exception that in some experiments, the host cells are irradiated (2400 RADs) before infection to prevent them from dividing.

Series [3] deals with T. cruzi. Briefly: Inhibition of T. cruzi in infected cells, cell line BHK. Format: cell-based. The following applies: days before cell monolayer is destroyed by infection; 20 μM, daily change of medium plus inhibitor. On the procedure:
as §1, §2

Series [4] has as its system calpain (Calcium Activated Neutral Protease). Briefly: Calpain inhibition. Format: biochemical. The following applies: incubated 30 minutes at 37° C.; tested at 20 μM, 2 μM, 200 nM. On the procedure:
The percent inhibition of one inhibitor, Acetyl-Leucyl-Leucyl-Phenylalanyl-α-(4-oxy-dihydrofuran-2-one) methyl ketone, on calpain (Calcium Activated Neutral Protease) was determined as follows. A 50 mM Hepes, 10 mM calcium chloride, 5 mM cysteine, 1 mM β-mercaptoethanol, pH 7.5 buffer solution was prepared. The enzyme was activated for 1 minute in the buffer solution at room temperature. Inhibitor was prepared as stock solution in dimethylformamide. Inhibitor and enzyme/buffer were incubated for 30 minutes at 37° C. Final concentrations of inhibitor were 20 μM, 2 μM, and 200 nM. Enzyme activity was followed with 200 μM Boc-Valnyl-Leucyl-Lysine-AFC substrate by the release of free fluorescent detecting group over minutes at 37° C., as compared to the control.

≈ marks a conversion by molar mass, not a printed value. Counter-ions that a name gives are not always drawn. Like-named read-outs stand apart in the source and are kept apart here. *1 amine or outer side, *2 acyl side, *3 side chain or, on linkers, in order; H or OH if unused. Where a SMILES comes first, the peptide text is derived from it. [ ]: non-standard residue; d: D form. The star is where a group is joined. ξ: configuration not given here. hPhe = N[C@@H](CCc1ccccc1)C(=O)O; Morpholide = C1CN(*)CCO1; ξF = NC(Cc1ccccc1)C(=O)O; CO = O=C([*:1])[*:2]; CH2F = FC*

On to `Cc1cc(OCC(=O)[C@@H](N)CCc2ccccc2)cc(=O)o1` [L-Homophenylalanyl-α-(4-oxy-(6-methyl-2-pyrone)methyl ketone], for which, on Cathepsin H, the half-maximal inhibitory concentration (IC50) stood at 118 nM.
For the molecule `CCC1OC(=O)C(OCC(=O)[C@H](CCc2ccccc2)NC(=O)[C@H](Cc2ccccc2)NC(=O)N2CCOCC2)=C1C` (stereo partly drawn) [Compound A2, N-Morpholinecarbonyl-L-phenylalanyl-L-homophenylalanyl-α-(3-oxy-5-ethyl-4-methyl 2(5H)furanone) methyl ketone], the malarial inhibition result in the series on malarial inhibition is on record as “particularly effective”.
In the series “physchem”, `O=C1C=C(OCC(=O)[C@H](CCc2ccccc2)NC(=O)[C@H](Cc2ccccc2)NC(=O)N2CCOCC2)CO1` [Compound 12, N-Morpholinecarbonyl-L-phenylalanyl-L-homophenylalanyl-α-(4-oxy-dihydrofuran-2-one) methyl ketone] had a solubility of 277 µg/mL (≈ 517 µM). Further, the 50% inhibitory concentration (IC50) in series [1] was 10 nM.
With `O=C(N[C@@H](CCc1ccccc1)C(=O)CF)C(Cc1ccccc1)NC(=O)N1CCOCC1` (stereo partly shown) [Mu—Phe—HPhe—CH2F, Morpholine-carbonyl-phenylalanyl-homophenylalanyl-fluoromethylketone, reference compound] ({Morpholide-CO}-[ξF]-[hPhe]-CH2F), the “Survival Time, Cell line J774” value with T. cruzi [2] was no less than 16 days. In addition, the aqueous solubility (20° C., distilled and deionized water) came out at 140 µg/mL (≈ 307 µM). Moreover, in the series with T. cruzi [3], the “Survival Time, Cell line BHK” value was no less than 16 days.
For `CC(=O)N[C@@H](CC(C)C)C(=O)N[C@@H](CC(C)C)C(=O)N[C@@H](Cc1ccccc1)C(=O)COC1=CC(=O)OC1` [Acetyl-Leucyl-Leucyl-Phenylalanyl-α-(4-oxy-dihydrofuran-2-one) methyl ketone], the “concentration at which inhibitor showed activity against calpain” value in series [4] was “less than 2 μM”.
In turn, “benzoxycarbonyl-phenylalanyl-alanylfluoromethyl ketone [Z—Phe—Ala—CH2F]” displayed an aqueous solubility (14° C.) of 45 µg/mL.
With `N[C@@H](CCc1ccccc1)C(=O)COC1=CC(=O)OC1` [L-Homophenyl-α-(4-oxy-dihydrofuran-2-one)methyl ketone hydrochloride], at Cathepsin H, 251 nM corresponded to half-maximal inhibition (IC50).

What is called IC50 is the concentration needed to halve the response being measured. A word on the solubility: it is how much of the substance goes into solution per volume. Read a high solubility as a readily soluble substance. For orientation: aqueous solubility means the concentration that dissolves in the medium under given conditions. High values mean much dissolved substance, low ones little dissolved substance.

Values taken from patent US20020128434A1, “Alpha-(1,3-dicarbonylenol ether) methyl ketones as cysteine protease inhibitors” (priority 1993, published 2002).
